From patent EP4818168A1, “FUSED RING COMPOUND, PHARMACEUTICAL COMPOSITION THEREOF AND USE THEREOF” (priority 2023, dated 2025)
pIC50: −log10 of the molar value. Where two headings read alike, the source gives them in different places.

What was measured:
AURKA = biological target: T1, AURKA (Homo sapiens, UniProt O14965); type: cell-based
T1 construct: endogenous in cells; host or cells: Jurkat cells
T1 sequence (O14965 1-403): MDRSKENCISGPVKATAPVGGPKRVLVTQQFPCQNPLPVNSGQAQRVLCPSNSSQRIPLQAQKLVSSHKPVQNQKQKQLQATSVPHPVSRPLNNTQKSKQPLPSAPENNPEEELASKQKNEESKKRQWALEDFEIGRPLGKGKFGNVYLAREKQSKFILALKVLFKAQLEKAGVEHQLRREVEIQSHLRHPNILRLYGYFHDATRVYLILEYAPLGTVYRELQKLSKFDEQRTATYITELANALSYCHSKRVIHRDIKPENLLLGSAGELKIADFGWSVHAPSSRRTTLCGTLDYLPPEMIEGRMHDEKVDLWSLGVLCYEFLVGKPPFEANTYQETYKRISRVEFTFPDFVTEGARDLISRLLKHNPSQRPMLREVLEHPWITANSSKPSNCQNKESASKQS
How it was run: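 AURKA degradation read by western blot: band signal, fluorescent or chemiluminescent, curve-fitted to derive DC50. Cells were Jurkat, plated at 1×10^6 cells/500 µL with compound, then lysed and blotted onto nitrocellulose, primary antibody overnight at 4°C.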

H82 cells = assay: cells; type: cell-based; conditions: Homo sapiens
Procedure: CellTiter-Glo (CTG) is a rapid cell viability test method based on ATP detection. […] Adenosine triphosphate (ATP) participates in various enzymatic reactions in organisms and is an indicator of living cell metabolism. Its content directly reflects the number of living cells and cell status. During the experiment, equal volume of CTG reagent is added to the cultured cells to measure the luminescence value. The chemiluminescent signal value is proportional to the amount of ATP, thus reflecting the number of viable cells. Therefore, cell viability can be obtained by detecting the ATP content. Compounds that affect cell viability will inhibit cell viability in a concentration-dependent manner, allowing a curve to be fitted to obtain the IC50 value.
The experimental procedure is as follows: • 11. Place the cell suspension in a 15 mL centrifuge tube, centrifuge at 1000 rpm for 5 min at room temperature, discard the supernatant, and collect the cell pellet. • 12. Resuspend the cell pellet with preheated complete cell culture medium (RPMI1640+10%FBS+1%PS), and use a Countess® automated cell counter to detect cell viability and density. […] Transfer the compound solution to a 96-well plate seeded with cells (final concentration of DMSO 0.1%), and place in a cell incubator at 37°C, 5% CO2 for 6 days. • 15. […] Protect from light during the whole process. Perform optical signal readings using a SpectraMax i3x reader. • 16. Data analysis: Remaining activity (%) = 100% * (1 - ((LumDMSO - Lummedium) - Lumsample) / (LumDMSO - LumPBS/medium)). Use GraphPad Prism 9.0 software to draw an S-shaped dose-survival rate curve and calculate the IC50 value using a nonlinear regression model.

[1] = 100 nM compound, Jurkat cells, 24 h, Table 2
[2] = 1 µM compound, Jurkat cells, 24 h, Table 2
[3] = NCI-H82, H82 cells, 4000 cells/well, CellTiter-Glo, read-out: IC50 in H82 Cells
[4] = NCI-H82, read-out: IC50 in H82 Cells

Compound | Percentage of AURKA Degradation Induced by 100 nM Compound in Jurkat Cells (AURKA; [1]) | Percentage of AURKA Degradation Induced by 1 µM Compound in Jurkat Cells (AURKA; [2]) | pIC50 (H82 cells; [3]) | Percentage of AURKA Degradation Induced by 100 nM Compound in Jurkat Cells (AURKA) | Percentage of AURKA Degradation Induced by 1 µM Compound in Jurkat Cells (AURKA) | pIC50 (H82 cells; [4])
O=C1CCN(c2ccnc(N3CCN(CC#Cc4cccc(Nc5ncc6c(n5)-c5ccc(Cl)cc5C(c5c(F)cccc5F)=NC6)c4)CC3)c2)C(=O)N1 [Compound A130] | ++ (30% < Degradation ≤ 70%) | ++ (30% < Degradation ≤ 70%) | > 6.00 |  |  | 
O=C1CCN(c2cncc(N3CCN(CC#Cc4cccc(Nc5ncc6c(n5)-c5ccc(Cl)cc5C(c5c(F)cccc5F)=NC6)c4)CC3)c2)C(=O)N1 [Compound A131] | +++ (Degradation > 70%) | +++ (Degradation > 70%) | > 6.00 |  |  | 
O=C1CCN(c2ccc(N3CCC(N4CCN(c5ccc(Nc6ncc7c(n6)-c6ccc(Cl)cc6C(c6c(F)cccc6F)=NC7)cc5)C(=O)C4)CC3)nc2)C(=O)N1 [Compound A132] |  |  |  | +++ (key: +: Degradation ≤ 30%; ++: 30% < Degradation ≤ 70%; +++: Degradation > 70%) | +++ (key: +: Degradation ≤ 30%; ++: 30% < Degradation ≤ 70%; +++: Degradation > 70%) | > 6.00
O=C1CCN(c2cccc(N3CC(CC#Cc4cccc(Nc5ncc6c(n5)-c5ccc(Cl)cc5C(c5c(F)cccc5F)=NC6)c4)C3)c2)C(=O)N1 [Compound A133] | ++ (30% < Degradation ≤ 70%) | +++ (Degradation > 70%) | > 6.00 |  |  | 
O=C1CCN(c2cnc(N3CCN(CCNC(=O)c4ccc(Nc5ncc6c(n5)-c5ccc(C7CC7)cc5C(c5c(F)cccc5F)=NC6)cc4)CC3)s2)C(=O)N1 [Compound A134] | +++ (Degradation > 70%) | ++ (30% < Degradation ≤ 70%) | > 6.00 |  |  | 
CN(CCN1CCN(c2ncc(N3CCC(=O)NC3=O)s2)CC1)C(=O)c1ccc(Nc2ncc3c(n2)-c2ccc(C4CC4)cc2C(c2c(F)cccc2F)=NC3)cc1 [Compound A135] | +++ (Degradation > 70%) | ++ (30% < Degradation ≤ 70%) | > 6.00 |  |  | 
CN(CCN1CCN(c2ccc(N3CCC(=O)NC3=O)cc2)CC1)C(=O)c1ccc(Nc2ncc3c(n2)-c2ccc(C4CC4)cc2C(c2c(F)cccc2F)=NC3)cc1 [Compound A136] | +++ (Degradation > 70%) | +++ (Degradation > 70%) | > 6.00 |  |  | 
COc1ccccc1C1=NCc2cnc(Nc3ccc(C(=O)NC4CC5(CCN(c6ccc(N7CCC(=O)NC7=O)cn6)CC5)C4)cc3)nc2-c2ccncc21 [Compound A137] | +++ (Degradation > 70%) | +++ (Degradation > 70%) | > 6.00 |  |  | 
O=C1CCN(c2ccc(N3CCC4(CC3)CC(NC(=O)c3ccc(Nc5ncc6c(n5)-c5ccncc5C(c5ccccc5F)=NC6)cc3)C4)nc2)C(=O)N1 [Compound A138] | +++ (Degradation > 70%) | +++ (Degradation > 70%) | 5.00 to 6.00 |  |  | 
O=C1CCN(c2cccc(N3CC(CN4CCN(c5cccc(Nc6ncc7c(n6)-c6ccc(Cl)cc6C(c6c(F)cccc6F)=NC7)c5)CC4)C3)c2)C(=O)N1 [Compound A140] | +++ (Degradation > 70%) | +++ (Degradation > 70%) | > 6.00 |  |  | 
O=C1CCN(c2cccc(N3CCN(CC4CN(c5cccc(Nc6ncc7c(n6)-c6ccc(Cl)cc6C(c6c(F)cccc6F)=NC7)c5)C4)CC3)c2)C(=O)N1 [Compound A141] | +++ (Degradation > 70%) | +++ (Degradation > 70%) | > 6.00 |  |  | 
O=C1CCN(c2ccc(N3CCC4(CC3)CC(NC(=O)c3ccc(Nc5ncc6c(n5)-c5ccc(C7CC7)cc5C(c5ccccc5Cl)=NC6)cc3)C4)nc2)C(=O)N1 [Compound A142] | +++ (Degradation > 70%) | +++ (Degradation > 70%) | > 6.00 |  |  | 
O=C1CCN(c2cccc(N3CCC(CN4CC(c5cccc(Nc6ncc7c(n6)-c6ccc(Cl)cc6C(c6c(F)cccc6F)=NC7)c5)C4)CC3)c2)C(=O)N1 [Compound A143] | +++ (Degradation > 70%) | +++ (Degradation > 70%) | > 6.00 |  |  | 
O=C1CCN(c2cccc(C3CCN(CCOc4cccc(Nc5ncc6c(n5)-c5ccc(Cl)cc5C(c5c(F)cccc5F)=NC6)c4)C3)c2)C(=O)N1 (stereo not drawn) [Compound A144] | + (Degradation ≤ 30%) | + (Degradation ≤ 30%) | > 6.00 |  |  | 
O=C1CCN(c2cccc(N3CCN(Cc4cccc(Nc5ncc6c(n5)-c5ccc(Cl)cc5C(c5c(F)cccc5F)=NC6)c4)CC3)c2)C(=O)N1 [Compound A146] | ++ (30% < Degradation ≤ 70%) | + (Degradation ≤ 30%) | > 6.00 |  |  | 
O=C1CCN(c2cccc(N3CCN(CCc4cccc(Nc5ncc6c(n5)-c5ccc(Cl)cc5C(c5c(F)cccc5F)=NC6)c4)CC3)c2)C(=O)N1 [Compound A147] | +++ (Degradation > 70%) | +++ (Degradation > 70%) | > 6.00 |  |  | 
O=C1CCN(c2cccc(N3CCN(CCOc4cccc(Nc5ncc6c(n5)-c5ccc(C7CC7)cc5C(c5c(F)cccc5F)=NC6)c4)CC3)c2)C(=O)N1 [Compound A148] | +++ (Degradation > 70%) | +++ (Degradation > 70%) | > 6.00 |  |  | 
Cn1c(CN2CCN(c3ncc(N4CCC(=O)NC4=O)s3)CC2)cnc1-c1ccc(Nc2ncc3c(n2)-c2ccc(Cl)cc2C(c2c(F)cccc2F)=NC3)cc1 [Compound A149] | +++ (Degradation > 70%) | +++ (Degradation > 70%) | > 6.00 |  |  | 
O=C1CCN(c2cccc(N3CCC(N4CC(c5cccc(Nc6ncc7c(n6)-c6ccc(Cl)cc6C(c6c(F)cccc6F)=NC7)c5)C4)CC3)c2)C(=O)N1 [Compound A151] | ++ (30% < Degradation ≤ 70%) | + (Degradation ≤ 30%) | > 6.00 |  |  | 
Cc1c(N2CCN(CCc3cccc(Nc4ncc5c(n4)-c4ccc(Cl)cc4C(c4c(F)cccc4F)=NC5)c3)CC2)cccc1N1CCC(=O)NC1=O [Compound A155] | ++ (30% < Degradation ≤ 70%) | ++ (30% < Degradation ≤ 70%) | > 6.00 |  |  | 
Cc1c(N2CC(C#Cc3cccc(Nc4ncc5c(n4)-c4ccc(Cl)cc4C(c4c(F)cccc4F)=NC5)c3)C2)cccc1N1CCC(=O)NC1=O [Compound A156] |  |  |  | + (key: +: Degradation ≤ 30%; ++: 30% < Degradation ≤ 70%; +++: Degradation > 70%) | + (key: +: Degradation ≤ 30%; ++: 30% < Degradation ≤ 70%; +++: Degradation > 70%) | 5.00 to 6.00
O=C1CCN(c2cnc(N3CCN(CCN4Cc5cc(Nc6ncc7c(n6)-c6ccc(Cl)cc6C(c6c(F)cccc6F)=NC7)ccc5C4=O)CC3)s2)C(=O)N1 [Compound A157] | ++ (30% < Degradation ≤ 70%) | + (Degradation ≤ 30%) | > 6.00 |  |  | 
O=C1CCN(c2ccc(N3CCN(CCN4Cc5cc(Nc6ncc7c(n6)-c6ccc(Cl)cc6C(c6c(F)cccc6F)=NC7)ccc5C4=O)CC3)cc2)C(=O)N1 [Compound A158] | ++ (30% < Degradation ≤ 70%) | + (Degradation ≤ 30%) | > 6.00 |  |  | 
